One test concerns the target human KOR (hKOR) (Homo sapiens, UniProt P41145). Conditions: cited from earlier work.
A further test has as its target hKOR (Homo sapiens, UniProt P41145). Kind of test: biochemical. Format: biochemical. Conditions: for Emax at 1 µM: read-out: Emax at 1 μM (percentage of maximal response to U50,488H); for Emax: read-out: Emax (percentage of maximal response to U50,488H).

The term Emax denotes the greatest response seen or fitted, relative to the assay's reference.

hKOR, sequence (P41145 whole entry): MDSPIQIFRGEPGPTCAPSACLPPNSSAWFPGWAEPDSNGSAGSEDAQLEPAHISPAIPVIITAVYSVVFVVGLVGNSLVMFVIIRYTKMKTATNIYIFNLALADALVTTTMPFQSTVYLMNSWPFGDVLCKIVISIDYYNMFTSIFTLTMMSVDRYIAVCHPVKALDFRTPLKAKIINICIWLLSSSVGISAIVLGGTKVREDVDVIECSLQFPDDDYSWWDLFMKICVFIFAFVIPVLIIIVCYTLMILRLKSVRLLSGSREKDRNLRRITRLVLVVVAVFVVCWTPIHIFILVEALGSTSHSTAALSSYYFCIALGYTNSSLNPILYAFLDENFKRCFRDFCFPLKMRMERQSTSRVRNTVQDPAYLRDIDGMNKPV
human KOR (hKOR), sequence (P41145 whole entry): as above

Turning to `COC(=O)[C@@H]1C[C@H](O)C(=O)[C@H]2[C@@]1(C)CC[C@H]1C(=O)O[C@H](c3ccoc3)C[C@]21C` [Compound 2, Salvinorin B], on human KOR (hKOR), the “affinity to KOR (in words)” value is reported as “comparatively much lower affinity” and the “fold lower affinity than its epimer” value was 3 fold.
As for `CC[C@]1(COC)C[C@@H](C(=O)OC)[C@]2(C)CC[C@@H]3C(=O)O[C@H](c4ccoc4)C[C@]3(C)[C@H]2C1=O` [Compound 10b], the Emax at 1 µM on hKOR worked out at 81%.
Regarding `C=CC[C@]1(COC)C[C@@H](C(=O)OC)[C@]2(C)CC[C@@H]3C(=O)O[C@H](c4ccoc4)C[C@]3(C)[C@H]2C1=O` [Compound 12b], the Emax at 1 µM on hKOR turned out to be 84%.
The same measure, in the same setting: the result for `COC[C@@]1(CCOCCI)C[C@@H](C(=O)OC)[C@]2(C)CC[C@@H]3C(=O)O[C@H](c4ccoc4)C[C@]3(C)[C@H]2C1=O` [Compound 14b] reads 85%.
As to `COC[C@@]1(C)C[C@@H](C(=O)OC)[C@]2(C)CC[C@@H]3C(=O)O[C@H](c4ccoc4)C[C@]3(C)[C@H]2C1=O` [Compound 9b], the Emax at hKOR stood at 103 ± 16%.
For `COC[C@@]1(CCOCCI)C[C@@H](C(=O)OC)[C@]2(C)CC[C@H]3C(=O)O[C@H](c4ccoc4)C[C@]3(C)[C@H]2C1=O` [Compound 14a], the Emax at 1 µM on hKOR was found to be 98%.
`C=CC[C@]1(COC)C[C@@H](C(=O)OC)[C@]2(C)CC[C@H]3C(=O)O[C@H](c4ccoc4)C[C@]3(C)[C@H]2C1=O` [Compound 12a]: the Emax at 1 µM on hKOR came to 99%.
For the compound `COC[C@@]1(C)C[C@@H](C(=O)OC)[C@]2(C)CC[C@H]3C(=O)O[C@H](c4ccoc4)C[C@]3(C)[C@H]2C1=O` [Compound 9a, 2-methyl-2-methoxymethyl-salvinorin ether], on hKOR, the “agonist / antagonist activity at KOR” value was “potent full agonist” and the Emax came out at 123 ± 16%.
Turning to `CC[C@]1(COC)C[C@@H](C(=O)OC)[C@]2(C)CC[C@H]3C(=O)O[C@H](c4ccoc4)C[C@]3(C)[C@H]2C1=O` [Compound 10a], the Emax at 1 µM at hKOR was 83%.

The values above are taken from paper PMC4620681 (Bioorganic & medicinal chemistry letters, 2015).
